According to patent US10675360B2 (MADRIGAL PHARMACEUTICALS, INC., priority 2014, dated 2020):

assay: Stability in mouse plasma; type: in vitro ADME; conditions: mouse plasma; 1 h, 37° C.

| SMILES | % Remaining [%] |
| --- | --- |
| CCc1c2c(nc3ccc(OC(=O)N4CCN(Cc5ccc(-n6c(O)nnc6-c6cc(C(C)C)c(O)cc6O)cc5)CC4C)cc13)-c1cc3c(c(=O)n1C2)COC(=O)C3(O)CC (stereo not drawn) [SDC-TRAP-0220, 4,11-diethyl-4-hydroxy-3,14-dioxo-3,4,12,14-tetrahydro-1H-pyrano[3′,4′:6,7]indolizino[1,2-b]quinolin-9-yl 4-(4-(3-(2,4-dihydroxy-5-isopropylphenyl)-5-hydroxy-4H-1,2,4-triazol-4-yl)benzyl)-2-methylpiperazine-1-carboxylate] | 78.3 |
| CCc1c2c(nc3ccc(OC(=O)N(C)CCCCN4CCN(Cc5ccc(-n6c(O)nnc6-c6cc(C(C)C)c(O)cc6O)cc5)CC4)cc13)-c1cc3c(c(=O)n1C2)COC(=O)C3(O)CC (stereo not drawn) [SDC-TRAP-0044, 4,11-diethyl-4-hydroxy-3,14-dioxo-3,4,12,14-tetrahydro-1H-pyrano[3′,4′:6,7]indolizino[1,2-b]quinolin-9-yl (4-(4-(4-(3-(2,4-dihydroxy-5-isopropylphenyl)-5-hydroxy-4H-1,2,4-triazol-4-yl)benzyl)piperazin-1-yl)butyl)(methyl)carbamate] | 61 |
| CCNC(=O)c1nnc(-c2cc(C(C)C)c(O)cc2O)n1-c1ccc(OC2CCN(C(=O)C3CCCCN3C(=O)Oc3ccc4nc5c(c(CC)c4c3)Cn3c-5cc4c(c3=O)COC(=O)[C@]4(O)CC)CC2)cc1 (stereo partly drawn) [SDC-TRAP-0216, (S)-4,11-diethyl-4-hydroxy-3,14-dioxo-3,4,12,14-tetrahydro-1H-pyrano[3′,4′:6,7]indolizino[1,2-b]quinolin-9-yl 2-(4-(4-(3-(2,4-dihydroxy-5-isopropylphenyl)-5-(ethylcarbamoyl)-4H-1,2,4-triazol-4-yl)phenoxy)piperidine-1-carbonyl)piperidine-1-carboxylate] | 67.7 |
| CCNC(=O)c1nnc(-c2cc(C(C)C)c(O)cc2O)n1-c1ccc(CN2CCC(C(=O)N3CCN(C(=O)Oc4ccc5nc6c(c(CC)c5c4)Cn4c-6cc5c(c4=O)COC(=O)C5(O)CC)C(C)C3)CC2)cc1 (stereo not drawn) [SDC-TRAP-0185, 4,11-diethyl-4-hydroxy-3,14-dioxo-3,4,12,14-tetrahydro-1H-pyrano[3′,4′:6,7]indolizino[1,2-b]quinolin-9-yl 4-(1-(4-(3-(2,4-dihydroxy-5-isopropylphenyl)-5-(ethylcarbamoyl)-4H-1,2,4-triazol-4-yl)benzyl)piperidine-4-carbonyl)-2-methylpiperazine-1-carboxylate] | 68.1 |
| CCNC(=O)c1nnc(-c2cc(C(C)C)c(O)cc2O)n1-c1ccc(Oc2ccc(N(C)C(=O)Oc3ccc4nc5c(c(CC)c4c3)Cn3c-5cc4c(c3=O)COC(=O)[C@]4(O)CC)cc2)cc1 [SDC-TRAP-0145, (S)-4,11-diethyl-4-hydroxy-3,14-dioxo-3,4,12,14-tetrahydro-1H-pyrano[3′,4′:6,7]indolizino[1,2-b]quinolin-9-yl (4-(4-(3-(2,4-dihydroxy-5-isopropylphenyl)-5-(ethylcarbamoyl)-4H-1,2,4-triazol-4-yl)phenoxy)phenyl)(methyl)carbamate] | 14.1 |
| CCNC(=O)c1nnc(-c2cc(C(C)C)c(O)cc2O)n1-c1ccc(Oc2ccc(C(=O)N3CCC(OC(=O)OC4(CC)C(=O)OCc5c4cc4n(c5=O)Cc5c-4nc4ccc(O)cc4c5CC)CC3)cc2)cc1 (stereo not drawn) [SDC-TRAP-0203, 4,11-Diethyl-9-hydroxy-3,14-dioxo-3,4,12,14-tetrahydro-1H-pyrano[3′,4′:6,7]indolizino[1,2-b]quinolin-4-yl (1-(4-(4-(3-(2,4-dihydroxy-5-isopropylphenyl)-5-(ethylcarbamoyl)-4H-1,2,4-triazol-4-yl)phenoxy)benzoyl)piperidin-4-yl) carbonate] | 71.2 |
| CCc1c2c(nc3ccc(O)cc13)-c1cc3c(c(=O)n1C2)COC(=O)C3(CC)OC(=O)CCC(=O)N1CCC(Cc2ccc(-n3c(O)nnc3-c3cc(C(C)C)c(O)cc3O)cc2)CC1 (stereo not drawn) [SDC-TRAP-0042, 4,11-diethyl-9-hydroxy-3,14-dioxo-3,4,12,14-tetrahydro-1H-pyrano[3′,4′:6,7]indolizino[1,2-b]quinolin-4-yl 4-(4-(4-(3-(2,4-dihydroxy-5-isopropylphenyl)-5-hydroxy-4H-1,2,4-triazol-4-yl)benzyl)piperidin-1-yl)-4-oxobutanoate] | 74 |
| CCc1c2c(nc3ccc(O)cc13)-c1cc3c(c(=O)n1C2)COC(=O)C3(CC)OC(=O)N(C)CCOCCn1ccc2cc(-n3c(O)nnc3-c3cc(C(C)C)c(O)cc3O)ccc21 (stereo not drawn) [SDC-TRAP-0037, 4,11-diethyl-9-hydroxy-3,14-dioxo-3,4,12,14-tetrahydro-1H-pyrano[3′,4′:6,7]indolizino[1,2-b]quinolin-4-yl (2-(2-(5-(3-(2,4-dihydroxy-5-isopropylphenyl)-5-hydroxy-4H-1,2,4-triazol-4-yl)-1H-indol-1-yl)ethoxy)ethyl)(methyl)carbamate] | 95 |
| CCc1c2c(nc3ccc(OC(=O)N4CCC(Cn5ccc6cc(-n7c(O)nnc7-c7cc(C(C)C)c(O)cc7O)ccc65)CC4)cc13)-c1cc3c(c(=O)n1C2)COC(=O)C3(O)CC (stereo not drawn) [SDC-TRAP-0186] | 57.9 |
| CCc1c2c(nc3ccc(OC(=O)N(C)CCn4ccc5cc(-n6c(O)nnc6-c6cc(C(C)C)c(O)cc6O)ccc54)cc13)-c1cc3c(c(=O)n1C2)COC(=O)C3(O)CC (stereo not drawn) [SDC-TRAP-0022, 4,11-diethyl-4-hydroxy-3,14-dioxo-3,4,12,14-tetrahydro-1H-pyrano[3′,4′:6,7]indolizino[1,2-b]quinolin-9-yl (2-(5-(3-(2,4-dihydroxy-5-isopropylphenyl)-5-hydroxy-4H-1,2,4-triazol-4-yl)-1H-indol-1-yl)ethyl)(methyl)carbamate] | 21 |
| CCc1c2c(nc3ccc(OC(=O)N4CCCCC4C(=O)N4CCC(CCn5ccc6cc(-n7c(O)nnc7-c7cc(C(C)C)c(O)cc7O)ccc65)CC4)cc13)-c1cc3c(c(=O)n1C2)COC(=O)[C@]3(O)CC (stereo partly drawn) [SDC-TRAP-0215, (S)-4,11-diethyl-4-hydroxy-3,14-dioxo-3,4,12,14-tetrahydro-1H-pyrano[3′,4′:6,7]indolizino[1,2-b]quinolin-9-yl 2-(4-(2-(5-(3-(2,4-dihydroxy-5-isopropylphenyl)-5-hydroxy-4H-1,2,4-triazol-4-yl)-1H-indol-1-yl)ethyl)piperidine-1-carbonyl)piperidine-1-carboxylate] | 77.2 |
| CCNC(=O)c1nnc(-c2cc(C(C)C)c(O)cc2O)n1-c1ccc(Oc2ccc(C(=O)N3CCC(N(C)C(=O)Oc4ccc5nc6c(c(CC)c5c4)Cn4c-6cc5c(c4=O)COC(=O)C5(O)CC)CC3)cc2)cc1 (stereo not drawn) [SDC-TRAP-0180, 4,11-Diethyl-4-hydroxy-3,14-dioxo-3,4,12,14-tetrahydro-1H-pyrano[3′,4′:6,7]indolizino[1,2-b]quinolin-9-yl (1-(4-(4-(3-(2,4-dihydroxy-5-isopropylphenyl)-5-(ethylcarbamoyl)-4H-1,2,4-triazol-4-yl)phenoxy)benzoyl)piperidin-4-yl)(methyl)carbamate] | 72.4 |
| CCc1c2c(nc3ccc(O)cc13)-c1cc3c(c(=O)n1C2)COC(=O)C3(CC)OC(=O)N1CCN(Cc2ccc(-n3c(O)nnc3-c3cc(C(C)C)c(O)cc3O)cc2)CC1 (stereo not drawn) [SDC-TRAP-0047, 4,11-diethyl-9-hydroxy-3,14-dioxo-3,4,12,14-tetrahydro-1H-pyrano[3′,4′:6,7]indolizino[1,2-b]quinolin-4-yl 4-(4-(3-(2,4-dihydroxy-5-isopropylphenyl)-5-hydroxy-4H-1,2,4-triazol-4-yl)benzyl)piperazine-1-carboxylate] | 89 |

same assay, conditions: mouse, plasma, 1 h, 10 μM

| % Remaining [%] | SMILES |
| --- | --- |
| 85.9 | COc1cc(O)c(-c2nnc(C(=O)NC(C)C)n2-c2ccc(CN3CCC(C(=O)Nc4cccc5c4CN(C4CCC(=O)NC4=O)C5=O)CC3)cc2)cc1C(C)C (stereo not drawn) [SDC-TRAP-0115, N-(2-(2,6-dioxopiperidin-3-yl)-1-oxoisoindolin-4-yl)-1-(4-(3-(2-hydroxy-5-isopropyl-4-methoxyphenyl)-5-(isopropylcarbamoyl)-4H-1,2,4-triazol-4-yl)benzyl)piperidine-4-carboxamide] |
| 98.0 | CCNC(=O)c1nnc(-c2cc(C(C)C)c(O)cc2O)n1-c1ccc(CN2CCC(C(=O)N3CCC[C@H]3C(=O)Nc3cccc4c3CN(C3CCC(=O)NC3=O)C4=O)CC2)cc1 (stereo partly drawn) [SDC-TRAP-0164, 5-(2,4-dihydroxy-5-isopropylphenyl)-4-(4-((4-((2S)-2-((2-(2,6-dioxopiperidin-3-yl)-1-oxoisoindolin-4-yl)carbamoyl)pyrrolidine-1-carbonyl)piperidin-1-yl)methyl)phenyl)-N-ethyl-4H-1,2,4-triazole-3-carboxamide] |
| 98.3 | CCNC(=O)c1nnc(-c2cc(C(C)C)c(O)cc2O)n1-c1ccc(CN2CCC(C(=O)N(C)CCCOC(=O)Nc3cccc4c3CN(C3CCC(=O)NC3=O)C4=O)CC2)cc1 (stereo not drawn) [SDC-TRAP-0231, 3-(1-(4-(3-(2,4-dihydroxy-5-isopropylphenyl)-5-(ethylcarbamoyl)-4H-1,2,4-triazol-4-yl)benzyl)-N-methylpiperidine-4-carboxamido)propyl (2-(2,6-dioxopiperidin-3-yl)-1-oxoisoindolin-4-yl)carbamate] |

| SMILES | % Remaining [%] |
| --- | --- |
| CCNC(=O)c1nnc(-c2cc(C(C)C)c(O)cc2O)n1-c1ccc(CN2CCC(C(=O)N3CCN(c4cc(C)c(OC(=O)Nc5cccc6c5CN(C5CCC(=O)NC5=O)C6=O)c(C)c4)CC3)CC2)cc1 (stereo not drawn) [SDC-TRAP-0195, 4-(4-(1-(4-(3-(2,4-dihydroxy-5-isopropylphenyl)-5-(ethylcarbamoyl)-4H-1,2,4-triazol-4-yl)benzyl)piperidine-4-carbonyl)piperazin-1-yl)-2,6-dimethylphenyl (2-(2,6-dioxopiperidin-3-yl)-1-oxoisoindolin-4-yl)carbamate] | 98.4 |
| CC(C)c1cc(-c2nnc(O)n2-c2ccc(CN3CCN(C(=O)Oc4ccc(COC(=O)Nc5cccc6c5CN(C5CCC(=O)NC5=O)C6=O)cc4)CC3)c(F)c2)c(O)cc1O (stereo not drawn) [SDC-TRAP-0171, 4-((((2-(2,6-dioxopiperidin-3-yl)-1-oxoisoindolin-4-yl)carbamoyl)oxy)methyl)phenyl-4-(4-(3-(2,4-dihydroxy-5-isopropylphenyl)-5-hydroxy-4H-1,2,4-triazol-4-yl)-2-fluorobenzyl)piperazine-1-carboxylate] | 17.7 |
